{"source": "BindingDB's records for doi:10.1021/acschembio.5b00398", "about": "(University of Oxford, 2015)", "test_in_all_cases": "EMSA", "key": {"[1]": {"molecular_target": "Cyclin-dependent kinase 2 [F80T] (Homo sapiens, UniProt P24941, F80T)", "procedure": "(§1) First, 4.5 μL of 2× kinase solution was added to 0.05 μL of compound (maximum concentration 1.8 mM in 90% DMSO and 10% H2O). To allow for possible slow association, plates with type II inhibitors were incubated for 60 min at 30 °C. The assay started after the addition of 4.5 μL of 2× peptide with ATP and was run for 60 min at 30 °C, after which 16 μL of stop solution was added (100 mM HEPES pH 7.5, 5% DMSO, 0.1% coating reagent (Caliper Lifescience) 10 mM EDTA, pH 8.0, 0.015% BRIJ35). All reactions were performed in 50 mM HEPES, pH 7.5, 1 mM DTT, 0.02% Tween 20, 0.02% BSA, 10 mM betaglycerophosphate, 0.01 mM Na3VO4, 0.6% DMSO, and 2 μM peptide."}, "[2]": {"molecular_target": "Cyclin-dependent kinase 2 [A144G] (Homo sapiens, UniProt P24941, A144G)", "procedure": "as §1"}, "[3]": {"molecular_target": "Cyclin-dependent kinase 2 [A144C] (Homo sapiens, UniProt P24941, A144C)", "procedure": "as §1"}, "[4]": {"molecular_target": "Cyclin-dependent kinase 2 [C118L] (Homo sapiens, UniProt P24941, C118L)", "procedure": "as §1"}, "[5]": {"molecular_target": "Cyclin-dependent kinase 2 (Homo sapiens, UniProt P24941)", "procedure": "as §1"}, "[6]": {"molecular_target": "Cyclin-dependent kinase 2 [C118L,A144C] (Homo sapiens, UniProt P24941, A144C/C118L)", "procedure": "as §1"}, "[7]": {"molecular_target": "Cyclin-dependent kinase 2 [C118I] (Homo sapiens, UniProt P24941, C118I)", "procedure": "as §1"}, "[8]": {"molecular_target": "Cyclin-dependent kinase 2 [F80M] (Homo sapiens, UniProt P24941, F80M)", "procedure": "as §1"}}, "data": [{"smiles": "CC(=O)Nc1cc(Oc2ccc3c(C(=O)Nc4ccc(CN5CCN(C)CC5)c(C(F)(F)F)c4)cccc3c2)ncn1", "note": "[K03859 (2)]", "values": [{"measurement": "IC50", "setting": "[1]", "result": 7.1, "unit": "µM"}, {"measurement": "IC50", "setting": "[2]", "result": "> 10", "unit": "µM"}, {"measurement": "IC50", "setting": "[3]", "result": "> 10", "unit": "µM"}, {"measurement": "IC50", "setting": "[4]", "result": "> 10", "unit": "µM"}, {"measurement": "IC50", "setting": "[5]", "result": "> 10", "unit": "µM"}, {"measurement": "IC50", "setting": "[6]", "result": "> 10", "unit": "µM"}, {"measurement": "IC50", "setting": "[7]", "result": "> 10", "unit": "µM"}, {"measurement": "IC50", "setting": "[8]", "result": "> 10", "unit": "µM"}]}]}
